Source: patent publication US11959083B2, “Immunosuppression-reverting oligonucleotides inhibiting the expression of CD39” (Secarna Pharmaceuticals GmbH & Co. KG, priority 2016, dated 2024)
l = locked nucleic acid (LNA); d = 2'-deoxy (DNA)

Experiments:
hCD39 [1] = assay: ATP degradation in primary human CD8+ T cells after hCD39 knockdown (ATP Bioluminescence Assay); format: cell-based; conditions: for Relative ATP levels in supernatants of CD8+ T cells 30 minutes after addition of ATP: 5 μM oligonucleotide 6 days, medium = 1
Method: FIG. 11A-11D show knockdown of hCD39 protein (FIG. 11A) and viability (FIG. 11B) of primary human CD8^+ T cells, isolated from peripheral blood using MACS. CD8^+ T cells were activated by plate-bound anti-human CD3 (OKT-3). Activated cells were treated with RPMI-1640 medium, medium supplemented with A04040H (SEQ ID No. 3), and medium supplemented with neg1 at 5 μM, respectively, for 6 days in total. After 3 days, medium was replaced with fresh medium containing 5 μM of A04040H (SEQ ID No. 3) and neg 1, respectively, and hCD39 protein knockdown efficacy (FIG. 11A) and viability (FIG. 11B) were analyzed on day 6 by flow cytometry. Residual hCD39 expression and viability (median of 7-AAD positive cells) is depicted compared to untreated cells (FIG. 11A-11B). The same day, cells were harvested, washed and re-plated at a constant cell number (150.000 cells/Well in a 96-Well plate) in triplicates. Then, 2 μM (FIG. 11C) or 20 μM (FIG. 11D) of ATP was added to cells or cell culture medium without cells and ATP concentration of cell supernatants or cell culture medium was determined after 30 min using the ATP Bioluminescence Assay Kit (Roche).
Additionally, the effect of hCD39 knockdown on ATP degradation was also analyzed in primary human CD8^+ T cells (FIG. 11A-11D). Activated T cells were treated with 5 μM antisense oligonucleotide A04040H (SEQ ID No. 3) or the negative control oligonucleotide neg1 for 6 days (3+3). After 3 days, RPMI-1640 medium was replaced with fresh RPMI-1640 medium containing […] of antisense oligonucleotide. Protein knockdown efficacy (FIG. 11A) and viability (FIG. 11B) were analyzed after 6 days by flow cytometry. […] On day 6, cells were re-plated at a constant cell number and ATP was added at concentrations of 2 μM (FIG. 11C) or 20 μM (FIG. 11D). ATP concentration was measured in the cell supernatants or in cell culture medium after 30 min (Table 15).

hCD39 [2] = biological target: T1, hCD39 (Homo sapiens, UniProt P49961); assay: ATP degradation in JIYOYE cells after hCD39 knockdown (ATP Bioluminescence Assay); format: cell-based; conditions: for Relative ATP levels in supernatants of JIYOYE cells 30 minutes after addition of ATP (vs. Medium control): 5 μM oligonucleotide 6 days or 20 μM ARL67156 1 h, 2 μM ATP added
T1 construct: endogenous in cells; host or cells: JIYOYE cells
T1 sequence (P49961 1-510): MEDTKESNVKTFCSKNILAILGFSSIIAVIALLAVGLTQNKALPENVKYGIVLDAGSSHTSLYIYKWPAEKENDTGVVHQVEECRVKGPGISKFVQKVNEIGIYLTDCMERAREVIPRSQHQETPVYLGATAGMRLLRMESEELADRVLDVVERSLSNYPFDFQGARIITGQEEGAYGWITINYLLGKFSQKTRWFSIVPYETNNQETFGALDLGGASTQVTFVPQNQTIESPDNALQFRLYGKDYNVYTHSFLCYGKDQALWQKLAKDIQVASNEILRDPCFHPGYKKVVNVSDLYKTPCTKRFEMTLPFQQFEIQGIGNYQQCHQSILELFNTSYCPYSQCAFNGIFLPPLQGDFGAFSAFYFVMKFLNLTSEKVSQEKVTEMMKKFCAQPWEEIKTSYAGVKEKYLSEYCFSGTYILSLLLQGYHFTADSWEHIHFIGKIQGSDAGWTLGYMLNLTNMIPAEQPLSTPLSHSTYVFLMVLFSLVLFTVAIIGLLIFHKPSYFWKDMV
Method: FIG. 10A-10C depict effects of hCD39 knockdown on viability and ATP concentration in JIYOYE cells. JIYOYE cells were treated with the indicated antisense oligonucleotide A04040H (SEQ ID No.3) or neg1 for 6 days in total at 5 μM. Medium was replaced with fresh oligonucleotide-containing medium after 3 days and hCD39 protein knockdown efficacy was analyzed on day 6 by flow cytometry. Residual hCD39 expression and viability of oligonucleotide-treated cells is depicted compared to untreated cells (FIG. 10A-10B). After 6 days, 20 μM of the CD39 small molecular inhibitor ARL67156 trisodium salt was added to no ASO treated cells and incubated for 1 h at 37° C. Then, 2 μM of ATP was added to cells or cell culture medium without cells from each condition and ATP concentration of cell supernatants or cell culture medium was determined after 30 min using the ATP Bioluminescence Assay Kit (Roche) (FIG. 10C).
Adenosine is one major immunosuppressive molecule generated during ATP degradation by hCD39. ATP can be detected by an ATP Bioluminescence Assay (ATP Bioluminescence Assay Kit CLS II; Roche). JIYOYE cells were treated with 5 μM antisense oligonucleotide A04040H (SEQ ID No. 3) or the negative control oligonucleotide neg1 for 6 days (3+3). After 3 days, RPMI-1640 medium was replaced with fresh RPMI-1640 medium containing 5 μM of oligonucleotide. Protein knockdown efficacy (FIG. 10A) and viability (FIG. 10B) were analyzed after 6 days by flow cytometry. […] The same day, cells that were not treated with any antisense oligonucleotide were incubated for 1 hr at 37° C. with 20 μM of the CD39 small molecular inhibitor ARL67156 trisodium salt (TOCRIS). Then, 2 μM of ATP was added to cells or cell culture medium without cells derived from each condition and ATP concentration was measured in the cell supernatants or in cell culture medium after 30 min. […] Table 14 presents the effect of hCD39 knockdown on relative ATP levels in the cell culture supernatants of JIYOYE cells: […]

[3] = JIYOYE cells, 5 μM, 6 days, 2 μM ATP, 30 min

Substance | Relative ATP levels in supernatants of CD8+ T cells 30 minutes after addition of ATP (hCD39 [1]; Added ATP (2 μmol/1)) | Relative ATP levels in supernatants of CD8+ T cells 30 minutes after addition of ATP (hCD39 [1]; Added ATP (20 μmol/1)) | ATP concentration compared to neg 1 treated cells (hCD39 [1]; primary human CD8+ T cells, 5 μM, 6 days) | ATP degradation efficacy (hCD39 [1]; primary human CD8+ T cells, 5 μM, 6 days, 2 or 20 μM ATP, 30 min) | Relative ATP levels in supernatants of JIYOYE cells 30 minutes after addition of ATP (vs. Medium control) (hCD39 [2]) | ATP concentration compared to cells treated with ARL67156 (hCD39 [2]; [3]) | ATP concentration compared to cells treated with neg 1 (hCD39 [2]; [3]) | ATP degradation efficacy (hCD39 [2]; [3])
+G*+T*+T*T*G*T*G*T*G*A*G*A*G*C*+T*+T (antisense GTTTGTGTGAGAGCTT; sugars from the 5' end l3 d11 l2, all phosphorothioate, methylation of C not given here) [A04040H] | 0.59 | 0.89 | about 7 × | nearly abolished | 0.76 | 2 × | about 4 × | nearly abolished
+C*+G*+T*T*T*A*G*G*C*T*A*T*G*T*A*+C*+T*+T (CGTTTAGGCTATGTACTT; chemistry not fully specified) [neg1, negative control antisense oligonucleotide not hybridizing with CD39, described in WO2014154843 A1, reference compound] | 0 | 0.12 | – | – | 0.19 | – | – | –
